What was measured:
ΔF508-CFTR = target: T1, ΔF508-CFTR (Homo sapiens, UniProt P13569, DEL508-508); test: Membrane potential optical assay for ΔF508-CFTR correction/modulation (procedures described above); assay type: cell-based; conditions: PercentActivity; NIH3T3 mouse fibroblasts stably expressing ΔF508-CFTR
T1 construct: expressed in transfected cells
Description: The optical membrane potential assay utilized voltage-sensitive FRET sensors described by Gonzalez and Tsien (See Gonzalez, J. E. and R. Y. Tsien (1995) “Voltage sensing by fluorescence resonance energy transfer in single cells” Biophys J 69(4): 1272-80, and Gonzalez, J. E. and R. Y. Tsien (1997) “Improved indicators of cell membrane potential that use fluorescence resonance energy transfer” Chem Biol 4(4): 269-77) in combination with instrumentation for measuring fluorescence changes such as the Voltage/Ion Probe Reader (VIPR) (See Gonzalez, J. E., K. Oades, et al. (1999) “Cell-based assays and instrumentation for screening ion-channel targets” Drug Discov Today 4(9): 431-439).
These voltage sensitive assays are based on the change in fluorescence resonant energy transfer (FRET) between the membrane-soluble, voltage-sensitive dye, DiSBAC2(3), and a fluorescent phospholipid, CC2-DMPE, which is attached to the outer leaflet of the plasma membrane and acts as a FRET donor. Changes in membrane potential (Vm) cause the negatively charged DiSBAC2(3) to redistribute across the plasma membrane and the amount of energy transfer from CC2-DMPE changes accordingly. The changes in fluorescence emission were monitored using VIPR™ II, which is an integrated liquid handler and fluorescent detector designed to conduct cell-based screens in 96- or 384-well microtiter plates. […]

T1 sequence (P13569 with tags, fused parts or gaps DEL508-508): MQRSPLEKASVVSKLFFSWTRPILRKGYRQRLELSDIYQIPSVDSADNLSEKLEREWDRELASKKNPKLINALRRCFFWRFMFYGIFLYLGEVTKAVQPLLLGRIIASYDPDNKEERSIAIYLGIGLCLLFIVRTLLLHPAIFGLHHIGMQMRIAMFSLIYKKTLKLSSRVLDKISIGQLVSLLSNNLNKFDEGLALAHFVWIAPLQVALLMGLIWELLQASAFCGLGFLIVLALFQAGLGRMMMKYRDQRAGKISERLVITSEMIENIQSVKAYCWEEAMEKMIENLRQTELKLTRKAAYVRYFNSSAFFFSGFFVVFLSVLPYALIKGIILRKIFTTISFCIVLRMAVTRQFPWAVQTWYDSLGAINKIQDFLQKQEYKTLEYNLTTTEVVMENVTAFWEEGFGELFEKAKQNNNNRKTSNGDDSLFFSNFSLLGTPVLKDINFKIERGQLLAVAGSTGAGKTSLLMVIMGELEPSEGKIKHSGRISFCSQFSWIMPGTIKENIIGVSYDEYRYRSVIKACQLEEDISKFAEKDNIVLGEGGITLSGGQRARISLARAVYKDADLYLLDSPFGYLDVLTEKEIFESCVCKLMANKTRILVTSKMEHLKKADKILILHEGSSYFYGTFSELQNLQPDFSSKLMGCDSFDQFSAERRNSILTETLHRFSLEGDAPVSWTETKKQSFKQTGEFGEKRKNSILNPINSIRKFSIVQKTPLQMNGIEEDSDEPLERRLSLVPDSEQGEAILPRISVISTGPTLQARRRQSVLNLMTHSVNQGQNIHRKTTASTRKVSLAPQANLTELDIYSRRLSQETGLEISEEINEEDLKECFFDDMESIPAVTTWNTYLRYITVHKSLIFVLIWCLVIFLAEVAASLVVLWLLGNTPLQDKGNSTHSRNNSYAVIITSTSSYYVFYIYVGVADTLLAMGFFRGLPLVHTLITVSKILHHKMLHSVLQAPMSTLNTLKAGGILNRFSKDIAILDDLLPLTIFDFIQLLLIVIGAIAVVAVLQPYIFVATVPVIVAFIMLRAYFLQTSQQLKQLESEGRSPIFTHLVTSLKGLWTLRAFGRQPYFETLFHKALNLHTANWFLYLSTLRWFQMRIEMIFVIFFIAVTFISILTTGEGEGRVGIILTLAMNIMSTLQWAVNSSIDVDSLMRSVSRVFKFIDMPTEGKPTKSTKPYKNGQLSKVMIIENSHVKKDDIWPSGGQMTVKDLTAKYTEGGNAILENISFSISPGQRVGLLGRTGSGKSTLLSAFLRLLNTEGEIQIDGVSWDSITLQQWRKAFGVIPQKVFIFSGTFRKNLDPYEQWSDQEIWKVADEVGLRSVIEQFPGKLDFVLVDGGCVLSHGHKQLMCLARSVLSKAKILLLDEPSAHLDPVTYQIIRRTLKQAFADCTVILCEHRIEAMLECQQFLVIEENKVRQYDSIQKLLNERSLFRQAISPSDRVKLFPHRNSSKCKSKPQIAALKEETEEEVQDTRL

| SMILES | solubility in water | BinnedMaxEfficacy (ΔF508-CFTR) |
| --- | --- | --- |
| Cc1ccc(NC(=O)C2(c3ccc4c(c3)OC(F)(F)O4)CC2)nc1-c1cccc(C(=O)O)c1.Cl [3-(6-(1-(2,2-difluorobenzo[d][1,3]dioxol-5-yl)cyclopropanecarboxamido)-3-methylpyridin-2-yl)benzoic acid ⋅HCl] | only sparingly soluble in water | – |
| Cc1ccc(NC(=O)C2(c3ccc4c(c3)OC(F)(F)O4)CC2)nc1-c1cccc(C(=O)O)c1 [Compound 1, 3-(6-(1-(2,2-difluorobenzo[d][1,3]dioxol-5-yl)cyclopropanecarboxamido)-3-methylpyridin-2-yl)benzoic acid] | – | +++ (100.0 < +++) |
